The values that follow come from patent US9353101B2 (Merck Sharp & Dohme Corp., priority 2012, dated 2016).

Each structure is given as a SMILES string.

The target of one data set is CETP (Homo sapiens (Human), UniProt P11597). The data set can be described thus: Scintillation Proximity Assay (SPA) for CETP Activity. To be noted: 15 nM CETP, biotinylated LDL, 3H-cholesterol ester HDL; read-out: SPA IC50 (CETP Inhibition). Type of data set: biochemical. How it is done:
Protocol: Scintillation Proximity Assay (SPA) for CETP Activity
First, low density lipoprotein (LDL) (Meridian) was biotinylated by incubating LDL with biotin for 1 hour on ice, after which it was dialyzed to remove free biotin. Then compounds at varying concentrations were incubated with 15 nM CETP (reagent production group, In Vitro Pharmacology, MRL Rahway) and 50 ug/ml of the biotinylated LDL in 50 mM HEPES, 150 mM NaCl, pH 7.4, for 1 hour at 37° C. The reaction was started by adding ^3H-cholesterol ester high density lipoprotein (HDL) (American Radiochemicals Corp) at a concentration of ˜0.6 nM. The reaction proceeded for 2 hours at 37° C., after which time it was quenched by the addition of 12% acetic acid. PVT streptavadin-coated scintillation proximity beads, which had been brought to room temperature, were then added at a concentration of 4 mg/ml. The assay was then mixed and counted after one half hour in a Microbeta plate reader.

The conditions of data set [1]: cited from earlier work.
For data set [2] the following is noted: patients given torcetrapib and atorvastatin concomitantly compared with atorvastatin alone; cited from earlier work.
Where [3] appears, read: patients, anacetrapib with baseline statin therapy compared with just a statin.

Chain of CETP (P11597 18-493): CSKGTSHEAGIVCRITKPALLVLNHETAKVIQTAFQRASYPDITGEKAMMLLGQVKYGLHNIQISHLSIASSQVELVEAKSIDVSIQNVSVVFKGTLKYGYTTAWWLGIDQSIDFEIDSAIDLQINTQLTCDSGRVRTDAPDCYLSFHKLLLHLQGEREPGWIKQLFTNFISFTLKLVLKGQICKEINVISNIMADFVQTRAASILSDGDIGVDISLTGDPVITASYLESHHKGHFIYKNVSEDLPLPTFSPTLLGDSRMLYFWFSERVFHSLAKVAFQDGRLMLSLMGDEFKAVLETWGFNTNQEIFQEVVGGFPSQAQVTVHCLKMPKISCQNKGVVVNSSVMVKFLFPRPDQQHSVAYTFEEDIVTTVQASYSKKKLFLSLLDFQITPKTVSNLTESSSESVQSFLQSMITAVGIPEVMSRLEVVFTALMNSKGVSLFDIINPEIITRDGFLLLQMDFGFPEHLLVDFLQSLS

In the case of `COc1ncc(C2CC2)cc1-c1cnc(N2CCOCC2)nc1CN1C(=O)O[C@H](c2cc(C(F)(F)F)cc(C(F)(F)F)c2)[C@@H]1C` [Example 12, (4S,5R)-5-(3,5-Bis(trifluoromethyl)phenyl)-3-((5-(5-cyclopropyl-2-methoxypyridin-3-yl)-2-morpholinopyrimidin-4-yl)methyl)-4-methyloxazolidin-2-one], the IC50 (as a rule, the midpoint of a concentration-inhibition curve) at CETP was determined as 530 nM.
Same read-out and setting: under `COc1ncc(Cl)cc1-c1cnc(N2CC(F)C2)nc1CN1C(=O)O[C@H](c2cc(F)cc(F)c2)[C@@H]1C` [Example 13, (4S,5R)-3-{[5-(5-Chloro-2-methoxypyridin-3-yl)-2-(3-fluoroazetidin-1-yl)pyrimidin-4-yl]methyl}-5-(3,5-difluorophenyl)-4-methyl-1,3-oxazolidin-2-one] stands 728 nM.
The same measure, in the same setting: under `COc1ncc(C(C)C)cc1-c1cnc(N2CCOCC2)nc1CN1C(=O)O[C@H](c2cc(C(F)(F)F)cc(C(F)(F)F)c2)[C@@H]1C` [Example 15, (4S,5R)-5-[3,5-Bis(trifluoromethyl)phenyl]-3-{[5-(5-isopropyl-2-methoxypyridin-3-yl)-2-(morpholin-4-yl)pyrimidin-4-yl]methyl}-4-methyl-1,3-oxazolidin-2-one] stands 229 nM.
In the case of `COc1cc(F)c(C(C)C)cc1-c1ccc(C(F)(F)F)cc1CN1C(=O)O[C@H](c2cc(C(F)(F)F)cc(C(F)(F)F)c2)[C@@H]1C` [anacetrapib], in data set [1] (patients treated with anacetrapib), the increase in mortality entry is on record as “unlikely”. In data set [1] (setting [3]), the “decrease of LDL-C” value is given as 40% and the “increase of HDL-C” value was 138%.
As for `CCOC(=O)N1c2ccc(C(F)(F)F)cc2[C@@H](N(Cc2cc(C(F)(F)F)cc(C(F)(F)F)c2)C(=O)OC)C[C@H]1CC` [torcetrapib], the incidence of mortality entry in data set [2] is reported as “higher incidence of mortality”.
